Data as given in patent US9107946B2, “Drug combinations comprising a DGAT inhibitor and a PPAR-agonist” (Janssen Pharmaceutica NV, priority 2008, dated 2015).
Like-named read-outs stand apart in the source and are kept apart here.

Experiments:
human DGAT1 = target: T1, human DGAT1 (Homo sapiens, UniProt O75907); assay: DGAT1 FlashPlate assay: inhibition of DGAT1 activity in membrane preparations; type: biochemical; conditions: human DGAT1 membranes from SF9 cells, [3H]-oleoylCoA, 120 min at 37° C.; read-out: pIC50 (-logIC50, 50% inhibition of DGAT1 activity) (converted)
T1 construct: FLAG (N); made in house; host or cells: SF9 insect cells (pFastBac / baculovirus); total cell membranes
T1 sequence (O75907 1-488): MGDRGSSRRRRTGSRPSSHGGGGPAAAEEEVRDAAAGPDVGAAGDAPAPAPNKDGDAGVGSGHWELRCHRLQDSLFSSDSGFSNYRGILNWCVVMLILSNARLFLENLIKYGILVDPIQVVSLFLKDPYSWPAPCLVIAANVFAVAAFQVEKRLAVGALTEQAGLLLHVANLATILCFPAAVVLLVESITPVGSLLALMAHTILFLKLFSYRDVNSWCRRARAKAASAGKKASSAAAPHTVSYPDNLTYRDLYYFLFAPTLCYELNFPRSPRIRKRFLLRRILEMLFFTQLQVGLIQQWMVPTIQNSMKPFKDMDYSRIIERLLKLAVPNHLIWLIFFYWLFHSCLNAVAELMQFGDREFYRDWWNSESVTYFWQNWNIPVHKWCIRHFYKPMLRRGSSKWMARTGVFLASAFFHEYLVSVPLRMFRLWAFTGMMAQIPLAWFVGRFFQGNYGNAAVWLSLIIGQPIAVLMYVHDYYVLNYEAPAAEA
Description: The inhibiting activity of compounds of Class A, Class B, Class C and Class D on DGAT1 activity was screened in a single well procedure assay using DGAT1 comprising membrane preparations and DGAT1 substrate comprising micelles and determining formed radio-active triacylglycerol coming in close proximity of a flashplate surface by radioluminescence.
Said assay is described in full detail in WO2006/067071, the content of which is incorporated herein by reference.
By DGAT1 activity is meant the transfer of coenzyme A activated fatty acids to the 3-position of 1,2-diacylglycerols, thus forming a triglyceride molecule, by enzyme DGAT1.
human DGAT1 (NM012079.2) was cloned into the pFastBac vector, containing translation start, a FLAG-tag at the N-terminus as described in literature and a viral Kozak sequence (AAX) preceding the ATG to improve expression in insect cells. Expression was done as described in literature (Cases, S., Smith, S. J., Zheng, Y., Myers H. M., Lear, S. R., Sande, E., Novak, S., Collins, C., Welch, C. B., Lusis, A. J., Erickson, S. K. and Farese, R. V. (1998) Proc. Natl. Acad. Sci. USA 95, 13018-13023.) using SF9 cells.
72h transfected SF9 cells were collected by centrifugation (13000 rpm-15 min-4° C.) and lysed in 2×500 ml lysisbuffer (0.1M Sucrose, 50 mM KCl, 40 mM KH2PO4, 30 mM EDTA pH 7.2. Cells were homogenized by cell disruptor. After centrifugation 1380 rpm-15 min-4° C. (SN discarded), pellet was resuspended in 500 ml lysisbuffer and total cell membranes collected by ultracentrifugation at 34000 rpm(100 000 g) for 60 min (4° C.). The collected membranes were resuspended in lysis buffer, divided in aliquots and stored with 10% glycerol at −80° C. until use.
• a) 1,2-dioleoyl-sn-glycerol, 10 mg/ml (1,2-diacylglycerol (DAG)) Dissolve in acetonitrile; evaporate the acetonitrile solution under nitrogen and reconstitute in chloroform at a final concentration of 10 mg/ml. • b) L-α-phosphatidylcholine, 1 mg/ml (phosphatidylcholine (PC)) • Dissolve in chloroform at a final concentration of 1 mg/ml and store at 4° C. • c) L-α-phosphatidyl-L-serine, 1 mg/ml (phophatidylserine (PS)) • Dissolve in chloroform at a final concentration of 1 mg/ml and store at 4° C. Method
Add 1 ml dioleoyl-sn-glycerol (10 mg/ml) to 10 ml of L-α-phosphatidylcholine (1 mg/ml) and 10 ml of L-α-phosphatidyl-L-serine (1 mg/ml) in a thick glass recipient. Evaporate under nitrogen and put on ice for 15 min Reconstitute in 10 ml Tris/HCl (10 mM, pH 7.4) by sonication on ice. The sonification process includes sonification cycles of 10 seconds in the sonification bath followed by 10 seconds cool down on ice and repeating this sonification cycle till a homogeneous solution is obtained (takes about 15 min). The thus obtained micelles are stored at −20° C. till later use and contain DAG at a final concentration of 1.61 mM.
• a) Assaybuffer • 50 mM Tris-HCl (pH 7.4), 150 mM MgCl2, 1 mM EDTA, 0.2% BSA. • b) N-ethylmaleimide, 5M • Dissolve 5 g into a final volume of 8 ml DMSO 100% and store at −20° C. in aliquots till later use. • c) Substrate mix (for 1 384 well plate=3840 μl) • 612 μl micelles stock (51 μM final) • 16.6 μl oleoylCoA 9.7 mM • 23 μl [^3H]-oleoylCoA (49 Ci/mmol, 500 μCi/ml) • 3188.4 μl Tris pH 7.4, 10 mM • d) Enzyme mix (for 1 384 well plate=3520 μl) (5 μg/ml) • Add 11.73 μl of DGAT membrane stock (1500 μg/ml stock) to 3508 μl assay buffer. • e) Stop mix (for 1 384 well plate=7.68 ml) (250 mM) • Add 384 μl of N-ethylmaleimide (5M) to 3.456 ml DMSO 100%, and further dilute 3.84 ml of said solution with 3.84 ml DMSO 10%. Method
DGAT activity in membrane preparations was assayed in 50 mM Tris-HCl (pH 7.4), 150 mM MgCl2, 1 mM EDTA and 0.2% BSA, containing 50 μM DAG, 32 μg/ml PC/PS and 8.4 μM [^3H]-oleoylCoA (at a specific activity of 30 nCi/well) in a final volume of 50 μl in 384-well format using the red shifted Basic Image FlashPlate™ (Perkin Elmer Cat.No. SMP400). […]

[1] = 0.04% compound 358 of Class D and/or 0.05% fenofibrate in diet
Description: Male C57BL/6 mice were housed in individually ventilated cages under controlled temperature (21° C.), humidity (45-65%) and light (12 h-12 h reverse light/dark cycle; Lights on—6 PM-6 AM). Mice were set on 60 kcal % fat energy diet until their average body weight was over 45 grams, at which time they were switched to a 45 kcal % fat diet.
For the purpose of Tests A, B and C, the mice were moved into modified type-2 cages with: doublewide food cup, wire grids and a tissue for bedding for several months before experiment to adapt to new housing/feeding conditions. Food (Research diets 45 kcal % diet D12451—see Scheme A) was provided in powdered form in a food hopper located off the front of the cage. […]
The mice were weighted the day before trial onset. […] The food intake the day before trial onset was also measured. […]
Food cups were filled and weighted daily during the experiment. Body weight was recorded every 2nd or 3rd day.
Food Intake and Body Weight data were analyzed using General Linear Models procedures appropriate for a 2×2 factorial design with blocking and repeated measures. […] Results were expressed as means±SEM (standard error of the mean). […]

[2] = Test A: food intake, body weight and serum biochemistry, DGAT inhibitor, fenofibrate or both in diet; type: in vivo, DIO C57BL/6 mice; conditions: 12 day trial, 45 kcal % fat diet; for cumulative food intake less than the control group: 0.04% D and/or 0.05% F in diet, only D+F significant (P<0.05)
Description: Diet was provided in powder form.
At the end of test A, blood was collected under isoflurane anesthesia for serum biochemistry determinations.

| IC50 (human DGAT1) [nM] | melting point [°C] | Compound | 21 days body weight change compared to controls (2x2 factorial) ([1]; main effects P<0.05, interaction P>0.05) | daily food intake compared to control mice ([1]; 45 kcal % fat diet, n=8/group) | cumulative food intake less than the control group [2] [%] | daily food intake compared to control mice ([2]; 0.04% compound 223 of Class D (D) and/or 0.05% fenofibrate (F) in diet) |
| --- | --- | --- | --- | --- | --- | --- |
| 38.9 | 262 to 263 | O=C(Nc1cccc(N2CCCC2)c1)c1ccc(N2CCN(C(=O)Cc3c(Cl)cc(CN4CCCC4)cc3Cl)CC2)cc1 [147-Class C, 4-[4-[[2,6-dichloro-4-(1-pyrrolidinylmethyl)phenyl]acetyl]-1-piperazinyl]-N-[3-(1-pyrrolidinyl)phenyl]-benzamide] |  |  |  |  |
| 6.17 | 250 to 252 | CC(=O)N1CCN(Cc2cc(Cl)c(CC(=O)N3CCN(c4ccc(C(=O)Nc5cccc(N6CCCC6)c5)cc4)CC3)c(Cl)c2)CC1 [149-Class C, 4-[4-[[4-[(4-acetyl-1-piperazinyl)methyl]-2,6-dichlorophenyl]acetyl]-1-piperazinyl]-N-[3-(1-pyrrolidinyl)phenyl]-benzamide] |  |  |  |  |
| 11.5 | 241 to 243 | CS(=O)(=O)N1CCN(Cc2cc(Cl)c(CC(=O)N3CCN(c4ccc(C(=O)NCc5cccc(N6CCCC6)c5)cc4)CC3)c(Cl)c2)CC1 [363-Class D, 4-[4-[[2,6-dichloro-4-[[4-(methylsulfonyl)-1-piperazinyl]methyl]phenyl]acetyl]-1-piperazinyl]-N-[[3-(1-pyrrolidinyl)phenyl]methyl]-benzamide] |  |  |  |  |
| 74.1 | 134.4 to 137 | O=C(NCc1cccc(N2CCCC2)c1)c1ccc(N2CCN(C(=O)C(O)c3ccc(CN4CCCC4)cc3Cl)CC2)cc1 (stereo not drawn) [356-Class D, 4-[4-[[2-chloro-4-(1-pyrrolidinylmethyl)phenyl]hydroxyacetyl]-1-piperazinyl]-N-[[3-(1-pyrrolidinyl)phenyl]methyl]-benzamide] |  |  |  |  |

The remaining lines, values behind:

| Compound | IC50 (human DGAT1) [nM] | melting point [°C] | 21 days body weight change compared to controls (2x2 factorial) ([1]; main effects P<0.05, interaction P>0.05) | daily food intake compared to control mice ([1]; 45 kcal % fat diet, n=8/group) | cumulative food intake less than the control group [2] [%] | daily food intake compared to control mice ([2]; 0.04% compound 223 of Class D (D) and/or 0.05% fenofibrate (F) in diet) |
| --- | --- | --- | --- | --- | --- | --- |
| COc1cc(CNC(=O)c2ccc(N3CCN(C(=O)Cc4c(Cl)cc(CN5CCCC5)cc4Cl)CC3)cc2)cc(OC)c1 [358-Class D, 4-[4-[[2,6-dichloro-4-(1-pyrrolidinylmethyl)phenyl]acetyl]-1-piperazinyl]-N-[(3,5-dimethoxyphenyl)methyl]-benzamide] | 25.7 | 199 to 200 | gained less weight than controls | not significantly less than control mice |  |  |
| COc1ccc(CC(=O)Nc2ccc(N3CCN(C(=O)Nc4c(Cl)cc(CN5CCCC5)cc4Cl)CC3)cc2)cc1 [compound 223 of Class D] |  |  |  |  | 3.2 | not significantly less than control mice |
| CC(C)OC(=O)C(C)(C)Oc1ccc(C(=O)c2ccc(Cl)cc2)cc1 [fenofibrate, reference compound] |  |  |  |  | 7.5 |  |
